Measured values: article PMC6152678, “In Vitro Comparative Study of the Inhibitory Effects of Mangiferin and Its Aglycone Norathyriol towards UDP-Glucuronosyl Transferase (UGT) Isoforms” (Molecules : A Journal of Synthetic Chemistry and Natural …, 2017)

Assays:
[1] = target: T1, UGT1A1 (Homo sapiens, UniProt P22309); test: Inhibition of recombinant UGT-catalyzed 4-MU glucuronidation; assay type: biochemical; conditions: pH 7.4, probe 4-methylumbelliferone (4-MU), 110 μM, 100 μM compound, 4-MU probe substrate, negative = activation
T1 construct: purchased BD Gentest Corp. (Woburn, MA, USA); host or cells: baculovirus-infected insect cells
T1 sequence (P22309 26-533): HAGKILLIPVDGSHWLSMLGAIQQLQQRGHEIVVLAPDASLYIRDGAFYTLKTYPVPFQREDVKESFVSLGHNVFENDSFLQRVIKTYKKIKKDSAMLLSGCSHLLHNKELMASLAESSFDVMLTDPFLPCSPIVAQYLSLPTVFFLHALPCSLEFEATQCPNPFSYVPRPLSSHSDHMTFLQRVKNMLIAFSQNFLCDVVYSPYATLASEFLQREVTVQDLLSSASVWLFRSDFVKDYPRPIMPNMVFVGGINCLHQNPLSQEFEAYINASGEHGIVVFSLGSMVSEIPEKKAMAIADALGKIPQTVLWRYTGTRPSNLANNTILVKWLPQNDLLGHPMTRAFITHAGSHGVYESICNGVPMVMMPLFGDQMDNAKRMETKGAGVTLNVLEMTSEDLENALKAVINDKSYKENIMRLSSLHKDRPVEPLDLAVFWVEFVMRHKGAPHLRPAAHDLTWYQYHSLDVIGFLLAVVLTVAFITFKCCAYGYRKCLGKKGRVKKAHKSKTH
Experimental: (§1) Sigma-Aldrich (St Louis, MO, USA) provided the following constituents in the incubation mixture: 4-methylumbelliferone (4-MU), 4-methylumbelliferone-β-D-glucuronide (4-MUG), Tris-HCl, 7-hydroxycoumarin, and uridine-diphosphoglucuronic acid (UDPGA) (trisodium salt). All other compounds were of high-performance liquid chromatography (HPLC) grade or of the highest grade commercially available. For enzyme sources, recombinant UGT isoforms expressed in baculovirus-infected insect cells were purchased from BD Gentest Corp. (Woburn, MA, USA), including UGT1A1, 1A3, 1A6, 1A7, 1A8, 1A9, 1A10, 2B4, 2B7, 2B15, and 2B17.
(§2) 4-MU, a nonspecific probe substrate for all the UGT isoforms, was employed to investigate the inhibition of MEF and NIR towards the activity of UGT isoforms. The incubation and analytical methods have been previously described. […] MEF and NIR were dissolved in the DMSO to make a stock solution of 20 mM, and various concentrations of working solutions were prepared through dilution with DMSO. 4-MU was used as a non-selective substrate of UGTs. There was a 5-min pre-incubation step at 37 °C before the reaction was initiated by the addition of UDPGA. 4-MU and inhibitors were previously dissolved in DMSO, and the total concentration of DMSO was 1%. The reactions were continued at 37 °C for 120 min for UGT1A1, UGT1A3, UGT1A10, UGT2B4, UGT2B7, UGT2B15 and UGT2B17, 30 min for UGT1A6, UGT1A7, UGT1A8, and UGT1A9, respectively. Reactions were terminated by the addition of 100 μL acetonitrile with 7-hydroxycoumarin (100 μM) as internal standard. The incubation mixtures were then centrifuged at 12,000 r/min for 10 min. 2 μL supernatant was injected into the UPLC system for analysis. An ACQUITY UPLC System (Waters, Milford, MA, USA) equipped with UV detector was used to analyze the samples, and the separation of all the compounds were carried out using a ACQUITY UPLC® BEH C18 (2.1 × 100 mm, 1.7 μm Waters) at a flow rate of 0.2 mL/min and UV detector at 316 nm. The mobile phase was consisted of ultrapure water containing 0.5% formic acid (A) and acetonitrile (B). The following gradient condition was used: 0–3.5 min, 10–65% B; 3.5–4.0 min, 65% B; 4.0–9.0 min, 10% B. To calculate the standard curve 0.1–100 μM of 4-MUG was used through drawing the peak area ration of 4-MUG/internal standard towards the concentration range of 4-MUG. The curve was linear over this concentration range, with an r^2 value > 0.99.
(§3) The inhibition type and Kinetics were determined for the inhibition of NTR towards UGT1A3, UGT1A7 and UGT1A9. The glucuronidation velocity of 4-MU was determined at multiple concentrations of 4-MU and NTR. Dixon and Lineweaver–Burk plots were employed to determine the inhibition type, and the second plot of the slopes from the Lineweaver–Burk plot versus the compound concentrations was utilized to calculate the Ki value. The determination of IC50 was calculated using Probit analysis in SPSS11.5 (SPSS, Chicago, IL, USA). The Student’s t-test was adopted at a significance level of p < 0.05 to determine statistically significant differences among experimental groups.

[2] = target: T2, UGT1A6 (Homo sapiens, UniProt P19224); test: as above; assay type: biochemical; conditions: pH 7.4, probe 4-methylumbelliferone (4-MU), 110 μM, 100 μM compound, 4-MU probe substrate, negative = activation
T2 construct: purchased BD Gentest Corp. (Woburn, MA, USA); host or cells: baculovirus-infected insect cells
T2 sequence (P19224 27-532): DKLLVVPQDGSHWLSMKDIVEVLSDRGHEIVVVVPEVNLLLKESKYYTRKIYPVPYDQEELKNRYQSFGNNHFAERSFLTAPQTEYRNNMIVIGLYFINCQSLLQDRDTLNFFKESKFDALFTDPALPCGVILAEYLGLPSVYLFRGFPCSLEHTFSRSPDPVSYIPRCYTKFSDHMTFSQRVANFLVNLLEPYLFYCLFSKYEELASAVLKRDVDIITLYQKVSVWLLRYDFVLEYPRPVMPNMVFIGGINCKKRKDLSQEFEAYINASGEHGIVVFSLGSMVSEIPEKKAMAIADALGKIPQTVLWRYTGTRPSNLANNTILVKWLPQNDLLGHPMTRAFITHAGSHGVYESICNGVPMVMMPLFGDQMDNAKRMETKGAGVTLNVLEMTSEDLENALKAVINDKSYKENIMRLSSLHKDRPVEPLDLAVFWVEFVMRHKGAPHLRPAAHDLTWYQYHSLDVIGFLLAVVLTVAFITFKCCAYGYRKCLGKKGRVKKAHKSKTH
Experimental: as §1, §2, §3

O=c1c2cc(O)c(O)cc2oc2cc(O)c([C@@H]3O[C@H](CO)[C@@H](O)[C@H](O)[C@H]3O)c(O)c12 [MGF, 1,3,6,7-tetrahydroxyxanthone-C-2-β-D-glucoside]
inhibition at 120 min, 100 µM [1]: 14.5% | inhibition at 30 min, 100 µM [2]: 11.2%

O=c1c2cc(O)c(O)cc2oc2cc(O)cc(O)c12 [NTR, 1,3,6,7-tetrahydroxyxanthone]
inhibition at 120 min, 100 µM [1]: 50.8% | inhibition at 30 min, 100 µM [2]: 46.2%
